Patent US11618747B2, “LXR modulators with bicyclic core moiety” (OrsoBio, Inc., priority 2018, dated 2023)

Experiments:
[1] = molecular target: T1, ligand-binding domain (LBD) of LXRβ (Homo sapiens, UniProt P55055, DUP175-175); experiment: LXR Gal4 reporter transient transfection assay (LBD-M2H Gal4β); type: cell-based; details: HEK293 cells, LXRβ LBD; read-out: LBD-M2H Gal4β (EC50 range)
T1 construct: LXRβ (amino acids 156-461); expressed in transfected cells; host or cells: HEK293
T1 sequence (P55055 with tags, fused parts or gaps DUP175-175 limits assumed): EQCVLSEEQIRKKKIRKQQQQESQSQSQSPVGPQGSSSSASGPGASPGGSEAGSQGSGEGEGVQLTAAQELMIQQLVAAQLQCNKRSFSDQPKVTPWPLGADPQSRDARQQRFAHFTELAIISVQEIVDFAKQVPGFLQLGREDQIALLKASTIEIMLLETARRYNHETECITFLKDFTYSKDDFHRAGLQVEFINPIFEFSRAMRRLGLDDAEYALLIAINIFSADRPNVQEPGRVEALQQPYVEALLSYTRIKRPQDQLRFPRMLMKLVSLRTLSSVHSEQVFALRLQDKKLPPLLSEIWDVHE
Procedure: The tested compounds were usually dissolved, tested and stored as 20 mM stock solutions in DMSO. Since sulfonyl acetic acid derivatives tend to decarboxylate under these conditions, these stock solutions were prepared, tested and stored as 20 mM DMSO stock solutions containing 100 mM trifluoroacetic Acid (5 equivalents). Sulfonyl acetic acid derivatives are shelf stable as solid at rt for long time as reported by Griesbrecht et al. (Synlett 2010:374) or Faucher et al. (J. Med. Chem. 2004; 47:18).
LXR Gal4 Reporter Transient Transfection Assays
LXRα and LXRβ activity status was determined via detection of interaction with coactivator and corepressor proteins in mammalian two-hybrid experiments (M2H). For this, via transient transfection the full length (FL) proteins of LXRα (amino acids 1-447; NP005684; SEQ ID NO:1) or LXRβ-(amino acids 1-461; NP009052; SEQ ID NO:2) or the ligand-binding domains (LBD) of LXRα (amino acids 155-447 SEQ ID NO:3) or LXRβ (amino acids 156-461; SEQ ID NO:4) were expressed from pCMV-AD (Stratagene) as fusions to the transcriptional activation domain of NFkB. As cofactors, domains of either the steroid receptor coactivator 1 (SRC1; amino acids 552-887; SEQ ID NO:5) or of the corepressor NCoR (amino acids 1906-2312; NP006302; SEQ ID NO:6) were expressed as fusions to the DNA binding domain of the yeast transcription factor GAL4 (from pCMV-BD; Stratagene). Interaction was monitored via activation of a coexpressed Firefly Luciferase Reporter gene under control of a promoter containing repetitive GAL4 response elements (vector pFRLuc; Stratagene). Transfection efficiency was controlled via cotransfection of constitutively active pRL-CMV Renila reniformis luciferase reporter (Promega). HEK293 cells were grown in minimum essential medium (MEM) with 2 mM L-glutamine and Earle's balanced salt solution supplemented with 8.3% fetal bovine serum, 0.1 mM non-essential amino acids, 1 mM sodium pyruvate, at 37° C. in 5% CO2. 3.5×10^4 cells/well were plated in 96-well cell culture plates in growth medium supplemented with 8.3% fetal bovine serum for 16-20 h to ˜90% confluency. For transfection, medium was taken off and LXR and cofactor expressing plasmids as well as the reporter plasmids are added in 30 μL OPTIMEM/well including polyethylene-imine (PEI) as vehicle. Typical amounts of plasmids transfected/well: pCMV-AD-LXR (5 ng), pCMV-BD-cofactor (5 ng), pFR-Luc (100 ng), pRL-CMV (0.5 ng). Compound stocks were prepared in DMSO, prediluted in MEM to a total volume of 120 μL, and added 4 h after addition of the transfection mixture (final vehicle concentration not exceeding 0.2%). Cells were incubated for additional 16 h, lysed for 10 min in 1× Passive Lysis Buffer (Promega) and Firefly and Renilla luciferase activities were measured sequentially in the same cell extract using buffers containing D-luciferine and coelenterazine, respectively. Measurements of luminescence were done in a BMG-luminometer.

[2] = molecular target: T2, LXRβ ligand-binding domain (Homo sapiens, UniProt P55055, DUP175-175); experiment: TR-FRETβ activity assay (NCoA3 coactivator peptide recruitment); type: biochemical; details: TR-FRET, 1 μM 24(S)-25-epoxycholesterol prestimulation; read-out: FRETβ (EC50 range)
T2 construct: amino acids 156-461; NP009052; made in house; host or cells: E. coli
T2 sequence (P55055 with tags, fused parts or gaps DUP175-175 limits assumed): T1 sequence (P55055 with tags, fused parts or gaps DUP175-175 limits assumed)
Summary of the method: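 GST-tagged human LXRβ LBD (aa 156-461, E. coli) at 76 nM with 400 nM biotinylated NCoA3 peptide in Tris/HCl pH 6.8, 240 mM KCl, BSA, 0.002% Triton-X-100, plus 1 μM 24(S)-25-epoxycholesterol as prestimulating agonist. Compounds at 50 μM down to 0.002 μM, 1 h at 4 °C. Coactivator recruitment by TR-FRET (Tb cryptate/XL665, 615/665 nm), triplicates.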

full length (FL) LXRβ = molecular target: T3, full length (FL) LXRβ (Homo sapiens, UniProt P55055, DUP175-175); experiment: LXR Gal4 reporter transient transfection assay (FL-M2H Gal4β); type: cell-based; details: HEK293 cells, full length LXRβ; read-out: FL-M2H Gal4β (EC50 range)
T3 construct: the full length (FL) proteins of LXRα (amino acids 1-447); NP005684; NP009052; expressed in transfected cells; host or cells: HEK293
T3 sequence (P55055 with tags, fused parts or gaps DUP175-175): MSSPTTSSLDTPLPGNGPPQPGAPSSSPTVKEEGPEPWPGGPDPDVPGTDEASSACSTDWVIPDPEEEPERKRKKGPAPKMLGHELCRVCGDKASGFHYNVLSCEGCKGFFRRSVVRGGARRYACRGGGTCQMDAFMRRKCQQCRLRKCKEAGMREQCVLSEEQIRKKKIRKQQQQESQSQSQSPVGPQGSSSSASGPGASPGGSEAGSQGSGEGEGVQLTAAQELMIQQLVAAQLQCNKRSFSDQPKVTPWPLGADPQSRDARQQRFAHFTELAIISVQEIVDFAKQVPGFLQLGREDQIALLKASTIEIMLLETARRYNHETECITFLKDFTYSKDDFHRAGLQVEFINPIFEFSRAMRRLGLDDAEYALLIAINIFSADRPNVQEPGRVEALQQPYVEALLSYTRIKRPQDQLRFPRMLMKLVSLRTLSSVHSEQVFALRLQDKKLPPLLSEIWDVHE
Summary of the method: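 HEK293 cells were transiently co-transfected with NFkB activation-domain fusions of LXR (full length or LBD) and GAL4 DNA-binding-domain fusions of SRC1 (aa 552-887) or NCoR (aa 1906-2312), plus a GAL4-response-element Firefly luciferase reporter and a Renilla control. Compounds were added 4 h post-transfection, cells incubated 16 h, then dual luciferase read.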

[3] = Short term HFD mouse model: plasma and liver exposure; type: in vivo, mice (C57BL/6J); details: HFD mice, 4 h after last dose
Procedure: Short Term HFD Mouse Model:
The in vivo transcriptional regulation of several LXR target genes by LXR modulators was assessed in mice.
For this, C57BL/6J were purchased from Elevage Janvier (Rennes, France) at the age of 8 weeks. After an acclimation period of two weeks, animals were preferred on a high fat diet (HFD) (Ssniff Spezialdiäten GmbH, Germany, Surwit EF D12330 mod, Cat. No. E15771-34), with 60 kcal % from fat plus 1% (w/w) extra cholesterol (Sigma-Aldrich, St. Louis, Mo.) for 5 days. Animals were maintained on this diet during treatment with LXR modulators. The test compounds were formulated in 0.5% hydroxypropylmethylcellulose (HPMC) and administered in three doses (from 1.5 to 20 mg/kg each) by oral gavage according to the following schedule: on day one, animals received treatment in the morning and the evening (ca. 17:00), on day two animals received the final treatment in the morning after a 4 h fast and were sacrificed 4 h thereafter. Animal work was conducted according to the national guidelines for animal care in Germany.
Upon termination, liver was collected, dipped in ice cold PBS for 30 seconds and cut into appropriate pieces. Pieces were snap frozen in liquid nitrogen and stored at −80° C. For the clinical chemistry analysis from plasma, alanine aminotransferase (ALT, IU/mL), cholesterol (CHOL, mg/dL) and triglycerides (TG, mg/dL) were determined using a fully-automated bench top analyzer (Respons®910, DiaSys Greiner GmbH, Flacht, Germany) with system kits provided by the manufacturer.

SMILES: Cc1ccc(S(=O)(=O)n2c(-c3cccc(-c4cccc(C(=O)NS(C)(=O)=O)c4)c3)c(-c3ccsc3C#N)c3ccccc32)cc1 [Example 32, 3′-(3-(2-Cyanothiophen-3-yl)-1-tosyl-1H-indol-2-yl)-N-(methylsulfonyl)-[1,1′-biphenyl]-3-carboxamide]
- EC50 [1]: 100 to 1000 nM
- EC50 [2]: 100 to 1000 nM

SMILES: N#Cc1sccc1-c1c(-c2cccs2)n(S(=O)(=O)c2ccc(CCC(=O)O)cc2)c2ccccc12 [23/1]
- EC50 [1]: < 100 nM
- EC50 [2]: 1000 to 10000 nM

SMILES: N#Cc1sccc1-c1c(-c2cccs2)n(S(=O)(=O)c2ccc(Cl)cc2)c2ccc(C(=O)O)cc12 [Example 23, 1-((4-Chlorophenyl)sulfonyl)-3-(2-cyanothiophen-3-yl)-2-(thiophen-2-yl)-1H-indole-5-carboxylic Acid]
- EC50 [1]: 100 to 1000 nM
- EC50 [2]: > 10000 nM

SMILES: N#Cc1sccc1-c1c(-c2cccs2)n(S(=O)(=O)c2ccc(Cl)cc2)c2ccc(O)cc12 [Example 13, 3-(1-((4-Chlorophenyl)sulfonyl)-5-hydroxy-2-(thiophen-2-yl)-1t-indol-3-yl)thiophene-2-carbonitrile]
- EC50 [1]: < 100 nM
- EC50 [2]: 100 to 1000 nM

SMILES: O=C(O)c1sccc1-c1c(-c2cccs2)n(S(=O)(=O)c2ccc(Cl)cc2)c2ccccc12 [Example 21, 3-(1-((4-Chlorophenyl)sulfonyl)-2-(thiophen-2-yl)-1H-indol-3-yl)thiophene-2-carboxylic Acid]
- EC50 [1]: 1000 to 10000 nM
- EC50 [2]: > 10000 nM

SMILES: COc1ccc(S(=O)(=O)n2c(-c3ccc(CCC(N)=O)cc3)c(-c3ccsc3C#N)c3ccccc32)cc1 [Example 28, 3-(4-(3-(2-Cyanothiophen-3-yl)-1-((4-methoxyphenyl)sulfonyl)-1H-indol-2-yl)phenyl)propan-amide]
- EC50 [1]: 100 to 1000 nM
- EC50 [2]: 1000 to 10000 nM

SMILES: O=S(=O)(c1ccc(Cl)cc1)n1c(-c2cccs2)c(-c2ccsc2Cl)c2ccccc21 [Example 20, 1-((4-Chlorophenyl)sulfonyl)-3-(2-chlorothiophen-3-yl)-2-(thiophen-2-yl)-1H-indole]
- EC50 [1]: < 100 nM
- EC50 [2]: 100 to 1000 nM

SMILES: N#Cc1sccc1-c1c(-c2cccs2)n(S(=O)(=O)c2ccc(Cl)cc2)c2ccc(OCC(=O)O)cc12 [Example 15, 2-((1-((4-Chlorophenyl)sulfonyl)-3-(2-cyanothiophen-3-yl)-2-(thiophen-2-yl)-1H-indol-5-yl)oxy)acetic Acid]
- EC50 [1]: > 10000 nM
- EC50 [2]: > 10000 nM

SMILES: Cc1ccc(S(=O)(=O)n2c(-c3cccc(C4CC4C(=O)O)c3)c(-c3ccsc3C#N)c3ccccc32)cc1 (racemic) [Example 30, rac-(1R,2R)-2-(3-(3-(2-Cyanothiophen-3-yl)-1-tosyl-1H-indol-2-yl)phenyl)cyclopropane-1-carboxylic Acid]
- EC50 [1]: < 100 nM
- EC50 [2]: 100 to 1000 nM

SMILES: CS(=O)(=O)NC(=O)c1ccc(-c2cccc(-c3c(-c4c(C#N)cccc4C#N)c4cc(F)ccc4n3S(=O)(=O)c3ccc(C(F)F)cc3)c2)c(Cl)c1 [32/5]
- EC50 [2]: < 100 nM
- EC50 (full length (FL) LXRβ): < 100 nM
- liver exposure 4 h ([3]; three oral doses of 10 mg/kg): B (300 nM to ≤1 μM)
- liver/plasma ratio 4 h ([3]; three oral doses of 10 mg/kg): B (5 to ≤30)
- plasma exposure 4 h ([3]; three oral doses of 10 mg/kg): D (D: <100 nM)

SMILES: COC(=O)CCc1ccc(S(=O)(=O)n2c(-c3cccs3)c(-c3ccsc3C#N)c3ccccc32)cc1 [20/15]
- EC50 [1]: 100 to 1000 nM
- EC50 [2]: 100 to 1000 nM

SMILES: N#Cc1sccc1-c1c(-c2cncs2)n(S(=O)(=O)c2ccc(Cl)cc2)c2ccccc12 [Example 25]
- EC50 [1]: < 100 nM
- EC50 [2]: 1000 to 10000 nM

SMILES: N#Cc1sccc1-c1c(-c2cccc(-c3ccc(C(=O)O)cc3Cl)c2)n(S(=O)(=O)c2ccc(C(F)F)cc2)c2ccc(F)cc12 [11/17]
- EC50 [2]: < 100 nM
- EC50 (full length (FL) LXRβ): < 100 nM
- liver exposure 4 h ([3]; three oral doses of 20 mg/kg): D (>10 μM)
- liver/plasma ratio 4 h ([3]; three oral doses of 20 mg/kg): C (30 to ≤100)
- plasma exposure 4 h ([3]; three oral doses of 20 mg/kg): C (C: 100 nM to <300 nM)

SMILES: N#Cc1cccc(C#N)c1-c1c(-c2cccc([C@H]3CC[C@H](C(=O)O)CC3)c2)n(S(=O)(=O)c2ccc(C(F)F)cc2)c2ccc(F)cc12 [11/62]
- EC50 [2]: 100 to 1000 nM
- EC50 (full length (FL) LXRβ): < 100 nM
- liver exposure 4 h ([3]; three oral doses of 10 mg/kg): C (1 μM to ≤10 μM)
- liver/plasma ratio 4 h ([3]; three oral doses of 10 mg/kg): B (5 to ≤30)
- plasma exposure 4 h ([3]; three oral doses of 10 mg/kg): C (C: 100 nM to <300 nM)

SMILES: Cc1cccc(S(=O)(=O)n2c(-c3cccc(N4CC(C(=O)O)C4)c3)c(-c3ccsc3C#N)c3cc(F)ccc32)c1 [3/8]
- EC50 [1]: < 100 nM
- EC50 [2]: 1000 to 10000 nM

SMILES: N#Cc1sccc1-c1c(-c2ccccc2)n(S(=O)(=O)c2ccc(OCC(=O)O)cc2)c2ccccc12 [Example 27, 2-(4-((3-(2-Cyanothiophen-3-yl)-2-phenyl-1-H-indol-1-yl)sulfonyl)phenoxy)acetic Acid]
- EC50 [1]: 100 to 1000 nM
- EC50 [2]: 1000 to 10000 nM

SMILES: COc1ccc(S(=O)(=O)n2c(-c3ccccc3)c(-c3cc4ccccc4nc3C#N)c3ccccc32)cc1 [20/17]
- EC50 [1]: 100 to 1000 nM
